Source: US11198869B2, “Angelman syndrome antisense treatment” (The Texas A&M University System, priority 2017, dated 2021)

Key:
IPW = IPW steady state RNA (qRT-PCR) in GABAergic iPSC-derived neurons; conditions: 10-point dose curve 1 nM-30 μM; 14 DIV to 20 DIV
SNORD109A/B = SNORD109A/B steady state RNA (qRT-PCR) in GABAergic iPSC-derived neurons; conditions: 10-point dose curve 1 nM-30 μM; 14 DIV to 20 DIV
SNURF = assay: RNA-sequencing of Angelman syndrome iPSC neurons: SNURF; type: cell-based, human; conditions: 30 μM; six days post-treatment; RNA-seq
Experimental: (§1) RNA was isolated using Qiagen RNAeasy Plus (74136, Qiagen, Hilden, Germany). RNA concentration was determined using Qubit Fluorometric Quantitation (Thermo Fisher Scientific) and RNA quality was assessed using a 4200 Agilent TapeStation (Agilent, Santa Clara, Calif.). RNA-sequencing libraries were generated using the Illumina TruSeq Stranded Total RNA kit (20020597, Illumina, Inc., San Diego, Calif.) according to the manufacturer's protocol. 75 base-pair paired-end sequencing was performed using a NextSeq 500 (IIlumina, San Diego, Calif.) at the Texas A&M Institute for Genome Sciences and Society Genomics core. Raw sequencing reads were processed using CASAVA. The resulting FASTQ sequences were examined using FASTQC. […]
(§2) To determine whether ASO-4.4.PS.L and ASO-6.1.PO-1.O affect the levels of RNA transcripts encoded by the PWS polycistronic transcript, RNA-sequencing was performed on AS iPS cells treated with each ASO and the steady state RNA levels of SNURF, SNRPN, the SNORD116 host-gene transcript (SNHG116), the SNORD116 snoRNAs, IPW, the SNORD115 host-gene transcript (SNHG115), the SNORD115 snoRNAs, and UBE3A-AS were quantified. UBE3A steady state RNA levels were also measured. […]

SNRPN = assay: RNA-sequencing of Angelman syndrome iPSC neurons: SNRPN; type: cell-based, human; conditions: 30 μM; six days post-treatment; RNA-seq
Experimental: as §1, §2

[1] = test system: SNORD116 host-gene transcript (SNHG116); assay: RNA-sequencing of Angelman syndrome iPSC neurons: SNHG116; type: cell-based, human; conditions: 30 μM; six days post-treatment; RNA-seq
Experimental: as §1, §2

SNORD116 snoRNAs = assay: RNA-sequencing of Angelman syndrome iPSC neurons: SNORD116 snoRNAs; type: cell-based, human; conditions: 30 μM; six days post-treatment; RNA-seq
Experimental: as §1, §2

Row | Compound | effect on IPW RNA levels (in words) (IPW) | effect on SNORD109A/B RNA levels (in words) (SNORD109A/B) | Difference, SNURF RNA level relative to vehicle (SNURF) | Difference, SNRPN RNA level relative to vehicle (SNRPN) | Difference, SNHG116 RNA level relative to vehicle [1] | Difference, SNORD116 RNA level relative to vehicle (SNORD116 snoRNAs)
1 | U^O*A^O*G^O*A^O*A^O*t*g*g*c*a*c*a*t*c*t*C^O*U^O*U^O*G^O*G^O [ASO-4] | significant effect on the RNA levels of IPW, SNORD115, and SNORD109A/B but not in a dose dependent manner | significant effect on the RNA levels of IPW, SNORD115, and SNORD109A/B but not in a dose dependent manner |  |  |  | 
2 | C^O*U^O*G^O*G^O-t*g*t*c*a*a*c*a*a*g-C^O*C^O*A^O*A^o [ASO-6.1.PO-1.O] |  |  | −0.53 | 0.03 | −0.07 | −0.04
3 | A^L*G^L*A^L*a*t*g*g*c*a*c*a*t*c*t*5mC^L*T^L*T^L*G^L (NNNATGGCACATCTNNNN; LNA gapmer, PS, 5-methylcytosine, chemistry not fully specified) [ASO-4.4.PS.L] |  |  | 0.49 | −0.02 | −0.24 | 0.27
4 | CC[C@@]1(O)C(=O)OCc2c1cc1n(c2=O)Cc2cc3c(CN(C)C)c(O)ccc3nc2-1 [Topotecan, reference compound] | significant effect on SNORD116, IPW, SNORD115, and SNORD109A/B RNA levels that was dose dependent | significant effect on SNORD116, IPW, SNORD115, and SNORD109A/B RNA levels that was dose dependent |  |  |  | 
